The source made the active and inactive calls. No cut-off for these calls is given here.
How the values were obtained:
[1] = test system: HEL; experiment: Antiproliferative activity against human HEL cells assessed as cell viability by cell titer glo assay; format: functional, cell-based
[2] = test system: Receptor-type tyrosine-protein kinase FLT3 (Homo sapiens), P36888 [R834Q]; settings: 1 uM
Description: Inhibition of FLT3 R834Q double mutant (unknown origin) at 1 uM by kinomescan analysis

[3] = test system: NOMO-1; experiment: Antiproliferative activity against human NOMO1 cells assessed as cell viability by cell titer glo assay; format: functional, cell-based
[4] = biological target: Receptor-type tyrosine-protein kinase FLT3 (Homo sapiens, UniProt P36888, D835Y)
[5] = test system: MOLM-13; experiment: Antiproliferative activity against pMMP-LucNeo fused human MOLM13 cells assessed as cell viability after 3 days by cell titer glo assay; format: functional, cell-based
[6] = test system: Receptor-type tyrosine-protein kinase FLT3 (Homo sapiens), P36888 [UNDEFINED MUTATION]; settings: 1 uM
[7] = test system: MOLM-14; experiment: Antiproliferative activity against human MOLM14 cells assessed as cell viability after 3 days by cell titer glo assay; format: functional, cell-based
[8] = test system: Serum; experiment: Protein binding in 10% human serum at 100 uM after 3 days; format: ADME; settings: 72 h
[9] = Cell cycle arrest in […]-ITD mutant expressing mouse BA/F3 cells assessed accumulation at G1 phase up to 100 nM after 48 hrs by propidium iodide staining based FACS analysis; format: functional; settings: BaF3
[10] = biological target: Rho-associated protein kinase 2 (Homo sapiens, UniProt O75116); experiment: Inhibition of ROCK2 (unknown origin) by kinomescan analysis
Chain of Rho-associated protein kinase 2 (O75116 whole entry): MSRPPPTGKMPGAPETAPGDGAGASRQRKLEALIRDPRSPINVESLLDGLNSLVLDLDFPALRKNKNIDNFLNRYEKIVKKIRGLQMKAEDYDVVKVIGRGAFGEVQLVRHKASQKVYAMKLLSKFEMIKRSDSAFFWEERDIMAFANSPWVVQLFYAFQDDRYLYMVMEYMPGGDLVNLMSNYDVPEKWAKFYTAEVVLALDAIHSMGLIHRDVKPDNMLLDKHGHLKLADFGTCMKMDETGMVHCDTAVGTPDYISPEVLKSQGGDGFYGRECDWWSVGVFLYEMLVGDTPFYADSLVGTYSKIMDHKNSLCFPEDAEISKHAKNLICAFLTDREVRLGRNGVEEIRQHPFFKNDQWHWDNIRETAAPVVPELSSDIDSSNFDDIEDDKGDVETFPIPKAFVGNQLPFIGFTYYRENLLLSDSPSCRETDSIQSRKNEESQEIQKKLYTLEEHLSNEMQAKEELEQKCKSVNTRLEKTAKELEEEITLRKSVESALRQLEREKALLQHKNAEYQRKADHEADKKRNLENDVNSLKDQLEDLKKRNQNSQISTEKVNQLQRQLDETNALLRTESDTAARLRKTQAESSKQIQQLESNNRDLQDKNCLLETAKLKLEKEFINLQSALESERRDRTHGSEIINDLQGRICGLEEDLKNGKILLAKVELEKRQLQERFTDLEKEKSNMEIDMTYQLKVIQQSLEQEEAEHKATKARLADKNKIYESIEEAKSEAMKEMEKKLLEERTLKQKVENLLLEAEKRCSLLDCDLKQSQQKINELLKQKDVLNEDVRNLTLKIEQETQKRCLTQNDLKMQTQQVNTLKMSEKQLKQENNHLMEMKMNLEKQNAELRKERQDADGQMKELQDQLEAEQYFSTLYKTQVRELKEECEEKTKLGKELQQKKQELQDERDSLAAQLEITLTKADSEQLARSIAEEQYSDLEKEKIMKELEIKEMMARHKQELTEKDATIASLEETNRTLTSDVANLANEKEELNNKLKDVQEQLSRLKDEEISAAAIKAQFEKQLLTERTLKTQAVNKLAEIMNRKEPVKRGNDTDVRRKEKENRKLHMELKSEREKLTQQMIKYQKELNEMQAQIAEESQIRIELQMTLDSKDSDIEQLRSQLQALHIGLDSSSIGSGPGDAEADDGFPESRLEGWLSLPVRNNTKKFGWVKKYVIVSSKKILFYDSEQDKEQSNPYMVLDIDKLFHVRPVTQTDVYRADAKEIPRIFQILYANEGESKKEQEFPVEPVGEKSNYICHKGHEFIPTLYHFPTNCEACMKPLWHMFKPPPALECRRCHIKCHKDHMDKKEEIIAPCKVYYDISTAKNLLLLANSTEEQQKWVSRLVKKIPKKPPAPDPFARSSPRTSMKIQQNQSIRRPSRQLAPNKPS

[11] = biological target: Receptor-type tyrosine-protein kinase FLT3 (Homo sapiens) (UniProt P36888); settings: 1 uM
Description: Inhibition of wild type FLT3 (unknown origin) at 1 uM by kinomescan analysis

[12] = test system: Plasma; experiment: Stability in mouse plasma after 6 hrs; format: ADME, cell-free
[13] = biological target: Receptor-type tyrosine-protein kinase FLT3 (Homo sapiens, UniProt P36888, ITD)
[14] = test system: BaF3; experiment: Induction of apoptosis in […]-ITD mutant expressing mouse BA/F3 cells up to 1000 nM after 48 hrs by Annexin V-fluos assay; format: functional, cell-based
[15] = biological target: Dual specificity protein kinase CLK4 (Homo sapiens, UniProt Q9HAZ1); experiment: Inhibition of CLK4 (unknown origin) by kinomescan analysis
Chain of Dual specificity protein kinase CLK4 (Q9HAZ1 whole entry): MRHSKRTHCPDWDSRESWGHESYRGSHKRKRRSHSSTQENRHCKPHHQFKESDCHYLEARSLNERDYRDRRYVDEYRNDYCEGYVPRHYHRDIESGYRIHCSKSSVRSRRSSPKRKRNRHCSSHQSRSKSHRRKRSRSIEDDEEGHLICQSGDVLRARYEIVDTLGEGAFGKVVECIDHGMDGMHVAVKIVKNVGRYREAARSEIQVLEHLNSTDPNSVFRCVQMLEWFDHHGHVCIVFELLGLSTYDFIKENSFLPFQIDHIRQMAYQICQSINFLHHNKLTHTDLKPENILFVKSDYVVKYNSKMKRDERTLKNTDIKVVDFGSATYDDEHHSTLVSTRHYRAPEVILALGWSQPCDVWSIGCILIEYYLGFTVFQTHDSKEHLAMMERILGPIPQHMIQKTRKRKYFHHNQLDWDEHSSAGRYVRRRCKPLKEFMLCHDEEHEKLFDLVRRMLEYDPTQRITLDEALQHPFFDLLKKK

[16] = test system: Receptor-type tyrosine-protein kinase FLT3 (Homo sapiens), P36888 [D835V]; settings: 1 uM
Description: Inhibition of FLT3 D835V mutant (unknown origin) at 1 uM by kinomescan analysis

[17] = organism: Homo sapiens; experiment: Antiproliferative activity against human P31 cells assessed as cell viability by cell titer glo assay; format: functional, cell-based
[18] = Half life in mouse microsomes; format: ADME, Microsome
[19] = test system: Receptor-type tyrosine-protein kinase FLT3 (Homo sapiens), P36888 [N841I]; settings: 1 uM
Description: Inhibition of FLT3 N841I mutant (unknown origin) at 1 uM by kinomescan analysis

[20] = biological target: Phosphorylase b kinase gamma catalytic chain, skeletal muscle/heart isoform (Homo sapiens, UniProt Q16816); experiment: Inhibition of PHKGI (unknown origin) by kinomescan analysis
Chain of Phosphorylase b kinase gamma catalytic chain, skeletal muscle/heart isoform (Q16816 whole entry, canonical isoform): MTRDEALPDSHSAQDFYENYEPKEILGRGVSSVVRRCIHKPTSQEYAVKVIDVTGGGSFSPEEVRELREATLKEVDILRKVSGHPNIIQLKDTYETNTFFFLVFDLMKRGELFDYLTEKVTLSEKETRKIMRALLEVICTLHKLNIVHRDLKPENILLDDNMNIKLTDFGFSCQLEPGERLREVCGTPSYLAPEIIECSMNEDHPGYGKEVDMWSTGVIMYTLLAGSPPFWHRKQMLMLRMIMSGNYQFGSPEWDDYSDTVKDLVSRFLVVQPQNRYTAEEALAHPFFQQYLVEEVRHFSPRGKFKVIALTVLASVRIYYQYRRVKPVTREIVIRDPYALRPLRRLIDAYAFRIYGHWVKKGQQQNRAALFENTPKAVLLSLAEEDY

[21] = test system: NALM-6; experiment: Antiproliferative activity against human NALM6 cells assessed as cell viability by cell titer glo assay; format: functional, cell-based
[22] = test system: THP-1; experiment: Antiproliferative activity against human THP1 cells assessed as cell viability by cell titer glo assay; format: functional, cell-based
[23] = test system: K052; experiment: Antiproliferative activity against human K052 cells assessed as cell viability by cell titer glo assay; format: functional, cell-based
[24] = Cell cycle arrest in […]-D835Y mutant expressing mouse BA/F3 cells assessed accumulation at G1 phase up to 100 nM after 48 hrs by propidium iodide staining based FACS analysis; format: functional; settings: BaF3
[25] = test system: K562; experiment: Antiproliferative activity against human K562 cells assessed as cell viability by cell titer glo assay; format: functional, cell-based
[26] = test system: PF-382; experiment: Antiproliferative activity against human PF382 cells assessed as cell viability by cell titer glo assay; format: functional, cell-based
[27] = test system: NB-4; experiment: Antiproliferative activity against pMMP-LucNeo fused human NB4 cells assessed as cell viability by cell titer glo assay; format: functional, cell-based
[28] = test system: BaF3; experiment: Induction of apoptosis in […]-D835Y mutant expressing mouse BA/F3 cells up to 1000 nM after 48 hrs by Annexin V-fluos assay; format: functional, cell-based
[29] = test system: U-937; experiment: Antiproliferative activity against human U937 cells assessed as cell viability by cell titer glo assay; format: functional, cell-based
[30] = test system: Receptor-type tyrosine-protein kinase FLT3 (Homo sapiens), P36888 [UNDEFINED MUTATION]; settings: 1 uM; remark: listed apart in the source
[31] = test system: Receptor-type tyrosine-protein kinase FLT3 (Homo sapiens), P36888 [UNDEFINED MUTATION]; settings: 1 uM; remark: listed apart in the source
[32] = Antiproliferative activity against human patient-derived FLT3 ITD mutant expressing AML cells primagrafted in mouse spleen after 3 days; format: functional, cell-based; settings: 72 h
[33] = Antiproliferative activity against human patient-derived FLT3 D835Y mutant expressing AML cells primagrafted in mouse spleen after 3 days; format: functional, cell-based; settings: 72 h
[34] = biological target: Dual specificity protein kinase CLK1 (Homo sapiens) (UniProt P49759); experiment: Inhibition of CLK1 (unknown origin) at 1 uM by kinomescan analysis
Chain of Dual specificity protein kinase CLK1 (Homo sapiens) (P49759 whole entry, looked up): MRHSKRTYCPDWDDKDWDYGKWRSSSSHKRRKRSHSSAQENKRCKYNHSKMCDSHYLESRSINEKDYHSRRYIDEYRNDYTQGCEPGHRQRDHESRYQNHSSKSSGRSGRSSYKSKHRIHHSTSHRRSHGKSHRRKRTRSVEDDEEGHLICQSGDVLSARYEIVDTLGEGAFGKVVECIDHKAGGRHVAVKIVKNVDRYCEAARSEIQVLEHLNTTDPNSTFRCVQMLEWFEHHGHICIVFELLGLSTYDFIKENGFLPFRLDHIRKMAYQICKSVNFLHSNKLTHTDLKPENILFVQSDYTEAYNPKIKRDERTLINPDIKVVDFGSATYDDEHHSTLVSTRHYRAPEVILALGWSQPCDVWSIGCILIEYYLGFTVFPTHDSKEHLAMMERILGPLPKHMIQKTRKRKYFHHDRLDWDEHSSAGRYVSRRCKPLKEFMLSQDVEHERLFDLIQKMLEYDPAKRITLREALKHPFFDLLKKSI

inhibition [2]: > 95% | IC50 [4]: 4 nM | inhibition [6]: > 95% | PB [8]: Active | IC50 [10]: 936 nM | inhibition [11]: > 95% | Stability [12]: Stable | IC50 [13]: 10 nM | IC50 [15]: 142 nM | inhibition [16]: > 95% | half-life [18]: 15 min | inhibition [19]: > 95% | IC50 [20]: 78 nM | inhibition [30]: > 95% | inhibition [31]: > 95% | inhibition [34]: Active
Compound: CN(C)CCCn1cc(-c2ccc3c(c2)-c2[nH]c4cc(-c5cn[nH]c5)ccc4c2C3=O)cn1
Activity [1]: inactive | Activity [3]: inactive | Activity [5]: Active | Activity [7]: Active | Activity [9]: Active | Activity [14]: Active | Activity [17]: inactive | Activity [21]: inactive | Activity [22]: inactive | Activity [23]: inactive | Activity [24]: inactive | Activity [25]: inactive | Activity [26]: inactive | Activity [27]: inactive | Activity [28]: Active | Activity [29]: inactive | IC50 [32]: 70 nM | IC50 [33]: 70 nM
